According to patent US20120183631A1, “INGREDIENT EXTRACTED FROM POUZOLZIA ZEYLANICA (L.) BENN AND ITS ANTI-ACNE FORMULA” (priority 2011, published 2012):

System: endotoxin
Type: cell-based

**Q.** For `COc1cc(/C=C/C(=O)CC(=O)/C=C/c2ccc(O)c(OC)c2)ccc1O` [Curcumin], which “Inhibition of endotoxin (in words)” value is on record?
**A.** not restrained
